System: gastric ulcers (ulcerous mucosal lesions)
Experiment: antiulcerogenic action on the rat (reserpine/indometacin/cold-induced gastric ulcers, oral test substance)
Type: in vivo, female Sprague-Dawley rats
Conditions: for ED50: Rattus norvegicus, oral, dose which reduces the ulcerous area by 50%, reserpine 1 mg/kg i.p., indometacin 21.5 mg/kg i.p., 6 hours at 8° C., read-out: Antiulcerogenic action on the rat, ED 50%; for Antiulcerogenic action on the rat, Relative activity: relative to pirenzepine = 1.0
Protocol: To investigate the antiulcerogenic action, 1 mg/kg of reserpine is administered intraperitoneally to groups of 10 female Sprague-Dawley rats each weighing 160-180 g, and the rats then remain without food for 18 hours (water ad libitum). This period is followed by intraperitoneal administration of 21.5 mg/kg of indometacin and oral administration of the test substance to the animals, which are then kept for 6 hours at 8° C., after which they are sacrificed. The stomachs are removed, and the area of ulcerous mucosal lesions is determined. The dose which reduces the ulcerous area by 50%, ie. the ED 50%, is determined from the linear regression between the logarithms of the doses administered and the relative reduction in the area of ulcerations, based on the control animals.
Pirenzepine (5,11-dihydro-11-[(4-methylpiperazin-1-yl)-acetyl]-6H-pyrido[2,3-b][1,4]benzodiazepin-6-one; German Pat. No. 1,795,183) is used as the reference substance.

| SMILES | ED50 | Antiulcerogenic action on the rat, Relative activity |
| --- | --- | --- |
| O=C(C=C1c2ccccc2NC(=O)c2ccccc21)OCCN1CCOCC1 (mixture of isomers) [Example 1, cis,trans-11-(2-Morpholin-1-yl)-ethoxycarbonylmethylene-5,6-dihydromorphanthridin-6-one] | 1.9 mg/kg | 3.4 |
| CN(C)CCOC(=O)C=C1c2ccccc2NC(=O)c2ccccc21 (mixture of isomers) [Example 2, cis,trans-11-(2-Dimethylamino)-ethoxycarbonylmethylene-5,6-dihydromorphanthridin-6-one] | 0.64 mg/kg | 10.2 |
| O=C(C=C1c2ccccc2NC(=O)c2ccccc21)OCCCN1CCOCC1 (mixture of isomers) [Example 14, cis,trans-11-(3-Morpholin-1-yl)-propoxycarbonylmethylene-5,6-dihydromorphanthridin-6-one] | 0.83 mg/kg | 7.8 |
| O=C(/C=C1/c2ccccc2NC(=O)c2ccccc21)OCCN1CCOCC1 [Example 1, cis, cis-11-(2-morpholin-1-yl)-ethoxycarbonylmethylene-5,6-dihydromorphanthridin-6-one] | 1.5 mg/kg | 4.3 |
| O=C(/C=C1\c2ccccc2NC(=O)c2ccccc21)OCCN1CCOCC1 [Example 1, trans, trans-11-(2-morpholin-1-yl)-ethoxycarbonylmethylene-5,6-dihydromorphanthridin-6-one] | 5.3 mg/kg | 1.2 |
| CN1CCN(CC(=O)N2c3ccccc3C(=O)Nc3cccnc32)CC1 [pirenzepine, 5,11-dihydro-11-[(4-methylpiperazin-1-yl)-acetyl]-6H-pyrido[2,3-b][1,4]benzodiazepin-6-one, reference compound] | 6.5 mg/kg | – |
